Assay results taken from patent US10562914B2, “Imidazoles as histone demethylase inhibitors” (Istituto Europeo di Oncologia S.r.l., priority 2016, dated 2020).
Structures can show the parent of a compound that is named as a salt.

Legend:
[1] = target: T1, human recombinant KDM1A/CoREST protein (Homo sapiens, UniProt O60341); assay: Assay of enzyme inhibition of KDM1A (LSD1), TR-FRET; type: biochemical; details: 0.25 nM KDM1A/CoREST, 50 nM H3K4 monomethylated peptide, 20 min at RT
T1 construct: made in house; host or cells: E. coli
Method: 2.1 Assay of Enzyme Inhibition of KDM1A (LSD1)
The intensity of the light emission is proportional to the level of biotinylated reaction product. The complex of human recombinant KDM1A/CoREST protein was produced in E. coli as separate proteins and co-purified as previously described.
Demethylase reaction was started by the addition of 50 nM histone H3K4 monomethylated.
The resulting mixture was incubated in the dark for 1 h at RT. Then, TR-FRET signal was read by a fluorimeter (Infinite® F200, Tecan, Männedorf, Swirzerland) (Excitation 320 nm, Emission 665 nm and 620 nm, delay time 50 μs, window time 100 μs).
The inhibitor concentrations ranged from 0.025 to 500 μM (serial 1:3 dilutions). The IC50 was calculated using GraphPad Software.

[2] = test system: Human leukemia MV4-11 cells; assay: Cell growth, CellTiter-Fluor viability assay, MV4-11; type: cell-based; details: 48 h incubation, read-out: IC50 against human leukemia MV4-11 cells
Text: (§1) CellTiter-Flor® (Promega) is as a nonlytic, single-reagent-addition fluorescence assay that measures the relative number of living cells in a culture population after experimental manipulation. The CellTiter-Fluor™ Cell Viability Assay measures the conserved and constitutive protease activity within live cells and therefore acts as a marker for cell viability.
(§2) Human leukemia MV4-11 cells, (obtained from the Deutsche Sammlung von Mikroorganismen und Zellkulturen, ACC 102) or NB4 cells, (obtained from the Deutsche Sammlung von Mikroorganismen und Zellkulturen) in exponential growth, were incubated for 48 h with different concentrations of the inhibitors. After 48 h a volume of CellTiter-Fluor® Reagent equal to one fifth of volume of cell culture medium was added. The content was mixed and incubates for at least 90 min at 37° C. degree to obtain a stable signal. The fluorescence was recorded using an excitation wavelength of 360 nm and an emission at 535 nm. The IC50 was calculated using GraphPad Software.

human leukemia NB4 cells = assay: Cell growth, CellTiter-Fluor viability assay, NB4; type: cell-based; details: NB-4, 48 h incubation, read-out: IC50 against human leukemia NB4 cells
Text: as §1, §2

Row | IC50 [1] [µM] | IC50 [2] [µM] | IC50 (human leukemia NB4 cells) [µM] | SMILES
1 | < 0.1 | < 10 | < 20 | CCc1nc(-c2cc3sccc3n2C)n(CCOc2cccc(OC3CCNCC3)c2)c1-c1ccccc1 [Example 33, 5-[4-ethyl-5-phenyl-1-[2-[3-(4-piperidyloxy)phenoxy]ethyl]imidazol-2-yl]-4-methyl-thieno[3,2-b]pyrrole]
2 | < 0.1 | < 10 | < 20 | CCc1cnc(-c2cc3sccc3n2C)n1CCOc1ccc(OCC2CCNCC2)cc1 [Example 24, 5-[5-ethyl-1-[2-[4-(4-piperidylmethoxy)phenoxy]ethyl]imidazol-2-yl]-4-methyl-thieno[3,2-b]pyrrole trifluoroacetate]
3 | < 0.1 | < 10 | < 20 | CCc1cn(CCOc2ccc(OCC3CCNC3)cc2)c(-c2cc3sccc3n2C)n1 (centres unmarked) [Example 22, 5-[4-ethyl-1-[2-[4-(pyrrolidin-3-ylmethoxy)phenoxy]ethyl]imidazol-2-yl]-4-methyl-thieno[3,2-b]pyrrole hydrochloride]
4 | < 0.1 | < 10 | < 20 | CCc1cn(CCOc2cccc(OC3CCNCC3)c2)c(-c2cc3sccc3n2C)n1 [Example 18, 5-[4-ethyl-1-[2-[3-(4-piperidyloxy)phenoxy]ethyl]imidazol-2-yl]-4-methyl-thieno[3,2-b]pyrrole hydrochloride]
5 | < 0.1 | < 10 | < 20 | CCc1cn(CCOc2ccc(OCC3CCNCC3)cc2)c(-c2cc3sccc3n2C)n1 [Example 23, 5-[4-ethyl-1-[2-[4-(4-piperidylmethoxy)phenoxy]ethyl]imidazol-2-yl]-4-methyl-thieno[3,2-b]pyrrole hydrochloride]
6 | < 0.1 | < 10 | < 20 | CCc1c(-c2ccccc2)nc(-c2cc3sccc3n2C)n1CCOc1cccc(OC2CCNCC2)c1 [Example 32, 5-[5-ethyl-4-phenyl-1-[2-[3-(4-piperidyloxy)phenoxy]ethyl]imidazol-2-yl]-4-methyl-thieno[3,2-b]pyrrole]

Further lines, the molecule ahead of its results:

Row | SMILES | IC50 [1] [µM] | IC50 [2] [µM] | IC50 (human leukemia NB4 cells) [µM]
7 | CCc1cnc(-c2cc3sccc3n2C)n1CCOc1ccc(OC2CCNCC2)cc1 [Example 21, 5-[5-ethyl-1-[2-[4-(4-piperidyloxy)phenoxy]ethyl]imidazol-2-yl]-4-methyl-thieno[3,2-b]pyrrole] | < 0.1 | < 10 | < 20
8 | CCc1cnc(-c2cc3sccc3n2C)n1CCCc1ccc(OC2CCNCC2)cc1 [Example 28, 5-[5-ethyl-1-[3-[4-(4-piperidyloxy)phenyl]propyl]imidazol-2-yl]-4-methyl-thieno[3,2-b]pyrrole hydrochloride] | < 0.1 | < 10 | < 20
9 | CCc1cn(CCOc2ccc(OC3CCNCC3)cc2)c(-c2cc3sccc3n2C)n1 [Example 20, 5-[4-ethyl-1-[2-[4-(4-piperidyloxy)phenoxy]ethyl]imidazol-2-yl]-4-methyl-thieno[3,2-b]pyrrole hydrochloride] | – | < 10 | < 20
10 | Cn1c(-c2ncc(C3CCC3)n2CCOc2ccc(OC3CCNCC3)cc2)cc2sccc21 [Example 30, 5-[5-cyclobutyl-1-[2-[4-(4-piperidyloxy)phenoxy]ethyl]imidazol-2-yl]-4-methyl-thieno[3,2-b]pyrrole hydrochloride] | < 0.1 | < 10 | < 20
11 | CCc1cnc(-c2cc3sccc3n2C)n1CCOc1ccc(OC2CCCNCC2)cc1 (centres unmarked) [Example 26, 5-[1-[2-[4-(azepan-4-yloxy)phenoxy]ethyl]-5-ethyl-imidazol-2-yl]-4-methyl-thieno[3,2-b]pyrrole trifluoroacetate] | < 0.1 | < 10 | < 20
12 | CCc1cn(CCOc2ccc(OC3CCCNCC3)cc2)c(-c2cc3sccc3n2C)n1 (centres unmarked) [Example 25, 5-[1-[2-[4-(azepan-4-yloxy)phenoxy]ethyl]-4-ethyl-imidazol-2-yl]-4-methyl-thieno[3,2-b]pyrrole hydrochloride] | – | < 10 | < 20
13 | CCc1cn(CCCc2ccc(OC3CCNCC3)cc2)c(-c2cc3sccc3n2C)n1 [Example 27, 5-[4-ethyl-1-[3-[4-(4-piperidyloxy)phenyl]propyl]imidazol-2-yl]-4-methyl-thieno[3,2-b]pyrrole hydrochloride] | – | < 10 | < 20
14 | CCc1c(-c2ccccc2)nc(-c2cc3sccc3n2C)n1CCOc1ccc(OC2CCNCC2)cc1 [Example 31, 5-[5-ethyl-4-phenyl-1-[2-[4-(4-piperidyloxy)phenoxy]ethyl]imidazol-2-yl]-4-methyl-thieno[3,2-b]pyrrole] | < 0.1 | < 10 | < 20
15 | Cn1c(-c2nc(C3CCC3)cn2CCOc2ccc(OC3CCNCC3)cc2)cc2sccc21 [Example 29, 5-[4-cyclobutyl-1-[2-[4-(4-piperidyloxy)phenoxy]ethyl]imidazol-2-yl]-4-methyl-thieno[3,2-b]pyrrole hydrochloride] | – | < 10 | < 20
16 | CCc1cnc(-c2cc3sccc3n2C)n1CCOc1cccc(OC2CCNCC2)c1 [Example 19, 5-[5-ethyl-1-[2-[3-(4-piperidyloxy)phenoxy]ethyl]imidazol-2-yl]-4-methyl-thieno[3,2-b]pyrrole] | < 0.1 | < 10 | < 20
